In PubChem BioAssay AID488870 (Broad Institute, 2010):
The source made the active and inactive calls.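 How the source made its calls: active means a drop in nitrite signal whose fitted half-maximal concentration is at most ten times the top tested dose; inconclusive means flat fit with 30 to 70% inhibition, or poor curve fit; inactive means the rest.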

Legend:
[1] = test system: INS-1E cytokine-induced nitrite, Griess absorbance, 48 h; test: inhibitors of cytokine-induced nitrite release, dose response, cell-based, Griess absorbance, INS-1E, dry powder, set 3 (AID 488870)
[2] = as above; settings: INS-1E cytokine-induced nitrite, Griess absorbance, 48 h; at 19.5 µM (top of the series)

Row | Compound | AC50 [1] | activity change, negative = inhibition [2]
1 | Cc1ccc(S(=O)(=O)N(C)C[C@H]2Oc3c(NC(=O)Nc4cccc5ccccc45)cccc3C(=O)N([C@@H](C)CO)C[C@@H]2C)cc1 | > 19.5 µM (inactive) | –
2 | C[C@@H]1CN([C@H](C)CO)C(=O)c2cccc(NC(=O)Nc3ccccc3)c2O[C@H]1CN(C)S(=O)(=O)c1ccc(F)cc1 | > 19.5 µM (inactive) | –
3 | COc1ccc(S(=O)(=O)N(C)C[C@@H]2Oc3c(NC(=O)c4ccncc4)cccc3C(=O)N([C@@H](C)CO)C[C@H]2C)cc1 | – | -12.3% (inactive)
4 | C[C@@H]1CN([C@@H](C)CO)C(=O)c2cccc(NC(=O)Nc3cccc4ccccc34)c2O[C@H]1CN(C)S(=O)(=O)c1ccccc1 | – | -19.1% (inactive)
5 | COc1ccc(S(=O)(=O)N(C)C[C@@H]2Oc3c(NC(=O)c4cc(C)nn4C)cccc3C(=O)N([C@@H](C)CO)C[C@H]2C)cc1 | – | -2.17% (inactive)
6 | COc1ccc(S(=O)(=O)N(C)C[C@@H]2Oc3c(NS(=O)(=O)c4ccccc4)cccc3C(=O)N([C@@H](C)CO)C[C@H]2C)cc1 | – | 2.87% (inactive)
7 | COc1ccc(S(=O)(=O)N(C)C[C@@H]2Oc3c(NC(=O)Nc4cccc5ccccc45)cccc3C(=O)N(C(C)C)C[C@H]2C)cc1 | – | -11.1% (inactive)
8 | COc1ccc(S(=O)(=O)N(C)C[C@@H]2Oc3c(NC(=O)Nc4cccc5ccccc45)cccc3C(=O)N([C@@H](C)CO)C[C@@H]2C)cc1 | – | -1.85% (inactive)
9 | C[C@@H]1CN([C@@H](C)CO)C(=O)c2cccc(NC(=O)Nc3cccc4ccccc34)c2O[C@H]1CN(C)S(C)(=O)=O | – | 9.52% (inactive)
10 | COc1ccc(S(=O)(=O)N(C)C[C@@H]2Oc3c(NC(=O)Nc4ccc(F)cc4)cccc3C(=O)N([C@H](C)CO)C[C@H]2C)cc1 | – | 20.3% (inactive)
11 | COc1ccc(S(=O)(=O)N(C)C[C@@H]2Oc3c(NC(=O)c4cccc5ccccc45)cccc3C(=O)N([C@@H](C)CO)C[C@H]2C)cc1 | – | -13.8% (inactive)
12 | COc1ccc(S(=O)(=O)N(C)C[C@@H]2Oc3c(NC(=O)C4CC4)cccc3C(=O)N([C@@H](C)CO)C[C@H]2C)cc1 | – | -4.99% (inactive)
13 | C[C@@H]1CN([C@@H](C)CO)C(=O)c2cccc(NC(=O)Nc3cccc4ccccc34)c2O[C@H]1CN(C)C(=O)Nc1ccccc1 | – | -16.1% (inactive)
14 | COc1ccc(S(=O)(=O)N(C)C[C@@H]2Oc3c(NC(=O)Nc4ccc(C(F)(F)F)cc4)cccc3C(=O)N([C@@H](C)CO)C[C@H]2C)cc1 | – | -18.3% (inactive)
15 | C[C@@H]1CN([C@@H](C)CO)C(=O)c2cccc(NC(=O)Nc3cccc4ccccc34)c2O[C@H]1CN(C)C(=O)Nc1ccc(F)cc1 | – | -13.6% (inactive)
16 | C[C@@H]1CN([C@@H](C)CO)C(=O)c2cccc(NC(=O)Nc3cccc4ccccc34)c2O[C@H]1CN(C)S(=O)(=O)c1ccc2c(c1)oc(=O)n2C | – | -7.4% (inactive)
17 | C[C@@H]1CN([C@H](C)CO)C(=O)c2cccc(NC(=O)Nc3ccc(F)cc3)c2O[C@H]1CN(C)S(=O)(=O)c1ccc(Cl)cc1 | – | -5.33% (inactive)
18 | COc1ccc(S(=O)(=O)N(C)C[C@H]2Oc3c(NC(=O)Nc4cccc5ccccc45)cccc3C(=O)N([C@H](C)CO)C[C@H]2C)cc1 | – | -1.83% (inactive)
